Measurements as given in patent publication US5362740A, “Dihydrobenzofuran carboxamides and process for their preparation” (Farmitalia Carlo Erba S.r.l., priority 1990, dated 1994).

What was measured:
5HT3 receptor [1] = biological target: T1, 5HT3 receptor (Rattus norvegicus, UniProt P35563); assay: Inhibition of the binding of ^3 H-GR65630; 5-HT3 binding affinity for rat entorhinal cortex; parameters: labeled in the entorhinal cortex of the rat brain; from tissue; host or cells: rat brain entorhinal cortex; details: for fitting model of interaction / displacement of ^3 H-GR 65630: rat entorhinal cortex
T1 sequence (P35563 24-483): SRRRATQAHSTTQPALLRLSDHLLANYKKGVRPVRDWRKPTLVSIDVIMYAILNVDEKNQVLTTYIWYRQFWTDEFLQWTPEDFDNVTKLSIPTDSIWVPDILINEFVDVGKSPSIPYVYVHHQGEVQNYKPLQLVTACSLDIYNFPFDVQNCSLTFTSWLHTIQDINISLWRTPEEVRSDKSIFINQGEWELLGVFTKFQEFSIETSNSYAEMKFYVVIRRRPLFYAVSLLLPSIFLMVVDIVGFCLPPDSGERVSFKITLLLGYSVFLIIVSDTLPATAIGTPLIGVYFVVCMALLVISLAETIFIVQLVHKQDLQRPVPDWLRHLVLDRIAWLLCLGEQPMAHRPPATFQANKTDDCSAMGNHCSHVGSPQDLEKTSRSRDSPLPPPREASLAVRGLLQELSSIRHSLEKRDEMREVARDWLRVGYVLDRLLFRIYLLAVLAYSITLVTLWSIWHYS

5-HT3 receptor = assay: as above; details: [^3 H] GR 65630 labeled 5HT3 sites; rat entorhinal cortex; two site non-linear fitting, low
5HT3 receptor [2] = biological target: T1, 5HT3 receptor; assay: Inhibition of the Bezold-Jarisch chemoreflex evoked by 5-HT in the anesthetized rat (in vivo 5HT3 antagonist activity); parameters: evoked by 5-HT in the anesthetised rat; from tissue; host or cells: whole anesthetized rat (in vivo); details: 5-HT 20 μg/kg I.V.; for % inhibition: mean ± S.E.M. from 6 animals, *p < 0.01 vs controls (Dunnett's test); for ED50: iv, I.V., anesthetized rat, read-out: ED50 (limits)
Experimental: Ther. 248, 197-201 (1989).
Inhibition of the Bezold-Jarisch reflex elicited by 5-HT (20 μg/
Values are mean ± S.E.M. from 6 animals

SMILES	Ki (5HT3 receptor [1]) [nM]	fitting model of interaction / displacement of ^3 H-GR 65630 (5HT3 receptor [1])	Ki (5-HT3 receptor) [nM]	% inhibition (5HT3 receptor [2]; 0.1 μg/kg I.V.) [%]	% inhibition (5HT3 receptor [2]; 0.3 μg/kg I.V.) [%]	% inhibition (5HT3 receptor [2]; 1 μg/kg I.V.) [%]	ED50 (5HT3 receptor [2]) [µg/kg]	% inhibition (5HT3 receptor [2]; 3 μg/kg I.V.) [%]	% inhibition (5HT3 receptor [2]; 10 μg/kg I.V.) [%]
CN1C2CCCC1CC(NC(=O)c1cc(Cl)c(N)c3c1OCC3)C2 (stereo not drawn) [FCE 27270, 4-amino-5-chloro-N-(9-methyl-9-azabicyclo[3.3.1]non-3-yl)-2,3-dihydrobenzo[b]furan-7-carboxamide]	0.092	two site non-linear fitting model	39	37.25 ± 2.77	54.09 ± 3.39	89.11 ± 3.39	0.2	–	–
CCN(CC)CCNC(=O)c1cc(Cl)c(N)cc1OC [Metoclopramide, reference compound]	–	one site non-linear fitting	–	–	–	–	–	–	–
Cc1nccn1CC1CCc2c(c3ccccc3n2C)C1=O (racemic) [Ondansetron, (±)-1,2,3,4-tetrahydro-9-methyl-3-(2-methylimidazol-1-yl-methyl)-carbazol-4-one, reference compound]	–	two site non-linear fitting model	–	–	–	32.86 ± 8.58	2.25	58.42 ± 3.89	81.21 ± 1.82
CN1C2CCC1CC(NC(=O)c1cc(Cl)c(N)c3c1OCC3)C2 (stereo not drawn) [FCE 27271, 4-amino-5-chloro-N-(8-methyl-8-azabicyclo[3.2.1]oct-3-yl)-2,3-dihydrobenzo[b]furan-7-carboxamide]	0.833	two site non-linear fitting model	96.2	23.83 ± 5.50	55.69 ± 4.05	82.54 ± 2.33	0.81	–	–
CN1C2CCC1CC(OC(=O)c1cc(Cl)cc(Cl)c1)C2 (stereo not drawn) [MDL 72222, reference compound]	–	one site non-linear fitting	–	–	–	–	–	–	–
